Data reported in patent publication US5858684A, “Method of screening calcium receptor-active molecules” (priority 1995, dated 1999).

Target: T1, calcium receptor expressed from bovine parathyroid cell mRNA in Xenopus oocytes (Bos taurus, UniProt P35384)
T1 sequence (P35384 20-1085): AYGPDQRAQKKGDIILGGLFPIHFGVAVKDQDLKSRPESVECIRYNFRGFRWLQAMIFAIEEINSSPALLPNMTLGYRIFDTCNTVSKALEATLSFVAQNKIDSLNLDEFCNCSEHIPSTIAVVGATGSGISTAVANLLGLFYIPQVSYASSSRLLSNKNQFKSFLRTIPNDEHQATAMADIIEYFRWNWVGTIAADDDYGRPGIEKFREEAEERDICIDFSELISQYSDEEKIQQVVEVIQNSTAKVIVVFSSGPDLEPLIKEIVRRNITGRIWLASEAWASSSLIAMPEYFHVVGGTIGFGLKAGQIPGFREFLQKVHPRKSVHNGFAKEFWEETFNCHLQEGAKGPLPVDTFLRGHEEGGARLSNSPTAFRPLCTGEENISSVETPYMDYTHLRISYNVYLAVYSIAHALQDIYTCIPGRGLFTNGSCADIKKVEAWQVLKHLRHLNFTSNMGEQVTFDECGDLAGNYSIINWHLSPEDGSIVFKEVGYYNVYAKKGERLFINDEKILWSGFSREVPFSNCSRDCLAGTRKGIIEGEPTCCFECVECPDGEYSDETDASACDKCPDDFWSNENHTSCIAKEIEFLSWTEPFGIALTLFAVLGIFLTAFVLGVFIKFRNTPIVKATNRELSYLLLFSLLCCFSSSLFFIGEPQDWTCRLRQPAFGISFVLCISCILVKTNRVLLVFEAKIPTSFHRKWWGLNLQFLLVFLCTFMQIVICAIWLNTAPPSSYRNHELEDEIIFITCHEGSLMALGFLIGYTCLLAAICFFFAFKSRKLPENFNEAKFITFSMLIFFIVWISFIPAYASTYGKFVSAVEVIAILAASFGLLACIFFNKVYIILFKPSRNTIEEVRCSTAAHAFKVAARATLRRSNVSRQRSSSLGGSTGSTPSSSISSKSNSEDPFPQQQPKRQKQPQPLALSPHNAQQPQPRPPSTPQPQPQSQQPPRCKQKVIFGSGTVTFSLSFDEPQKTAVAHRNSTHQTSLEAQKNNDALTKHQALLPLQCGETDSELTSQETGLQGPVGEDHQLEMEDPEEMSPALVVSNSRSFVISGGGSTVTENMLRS
Assay: Cl- current in Xenopus oocytes injected with bovine parathyroid mRNA
Assay type: cell-based
Settings: 30 μM
Description: Glass capillary tubes (1 mm diameter) were pulled to a fine tip and manually broken to achieve a tip diameter of about 15 μmeters. A droplet of mRNA (1 ng/nl in diethylpyrocarbonate (DEPC)-treated water) was placed onto […]® and drawn into the capillary tube by suction. The capillary tube was then connected to a picospritzer (WPI Instruments) and the volume of the air-pulsed droplets adjusted to deliver 50 ng of mRNA (typically 50 nl). A 35-mm culture dish with a patch of nylon stocking fixed to the bottom was used to secure the oocytes during injection of mRNA into the vegetal pole. The injected oocytes were placed into a 35-mm culture dish containing MBS, 100 μg/ml penicillin and 100 μg/ml streptomycin and incubated at 18° C. for 3 days.
Following incubation, an oocyte was placed into a 100-μl plastic chamber and superfused with MBS at a flow rate of 0.5 ml/min using a peristaltic pump. Test molecules or inorganic polycations were added by rapidly moving the tubing into different buffers. Recording and current-passing electrodes were constructed from thin-wall capillary tubing pulled to a resistance of 1-3 Mohms and filled with 3M KCl. […] Currents were recorded directly onto a strip chart recorder.

COc1cccc([C@@H](C)NCCCc2ccccc2)c1 (single isomer, unassigned) [NPS R-467]
Cl- current: rapid increase in Cl^-
